Measured values as given in PubChem BioAssay AID1918949 (Molecular Pharmacology Branch, DTP, NCI, 2023).

Test system: K24384-001-R-PDC complex spheroid viability
Test: Anticancer human tumor K24384-001-R-PDC patient-derived pancreatic adenocarcinoma cell line growth inhibition
Conditions: for IC50: curve of first compound; for viability, T/C: stronger effect = lower value; active = viability on the fitted dose curve at most 10% of control; inactive = the rest
Summary of the method: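 Complex spheroids of tumor cells with HUVEC and human MSCs, exposed to iadademstat combined with other agents. Each agent tested in half-log steps from near clinical Cmax (else 10 microM top), DMSO ≤0.25%.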

[1] = second compound 0.1 µM, first compound 0.00949 µM
[2] = second compound 0.1 µM, first compound 0.03 µM
[3] = second compound 0.1 µM, first compound 0.0949 µM
[4] = second compound 0.1 µM, first compound 0.3 µM
[5] = second compound 0.316 µM, first compound 0.00949 µM
[6] = second compound 0.316 µM, first compound 0.03 µM
[7] = second compound 0.316 µM, first compound 0.0949 µM
[8] = second compound 0.316 µM, first compound 0.3 µM
[9] = second compound 1 µM, first compound 0.00949 µM
[10] = second compound 1 µM, first compound 0.03 µM
[11] = second compound 1 µM, first compound 0.0949 µM
[12] = second compound 1 µM, first compound 0.3 µM
[13] = second compound 3.16 µM, first compound 0.00949 µM
[14] = second compound 3.16 µM, first compound 0.03 µM
[15] = second compound 3.16 µM, first compound 0.0949 µM
[16] = second compound 3.16 µM, first compound 0.3 µM
[17] = second compound 10 µM, first compound 0.00949 µM
[18] = second compound 10 µM, first compound 0.03 µM
[19] = second compound 10 µM, first compound 0.0949 µM
[20] = second compound 10 µM, first compound 0.3 µM
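Also: spheroids exposed to agents for seven days before luminescence viability reading.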
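For viability, T/C in this document: 100% = DMSO vehicle control viability.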

CCN(c1cc(-c2ccc(CN3CCOCC3)cc2)cc(C(=O)NCc2c(C)cc(C)[nH]c2=O)c1C)C1CCOCC1 + NC1CCC(NC2CC2c2ccccc2)CC1
> 3000 nM: IC50 (second compound 0.1 µM) | IC50 (second compound 0.316 µM) | IC50 (second compound 1 µM) | IC50 (second compound 3.16 µM) | IC50 (second compound 10 µM)
inactive: viability, T/C [1] 96% | viability, T/C [2] 80.3% | viability, T/C [3] 80.6% | viability, T/C [4] 107% | viability, T/C (second compound 0.1 µM, first compound 0.949 µM) 86.5% | viability, T/C (second compound 0.1 µM, first compound 3 µM) 57.5% | viability, T/C [5] 96.7% | viability, T/C [6] 92.1% | viability, T/C [7] 94.7% | viability, T/C [8] 92.1% | viability, T/C (second compound 0.316 µM, first compound 0.949 µM) 93.7% | viability, T/C (second compound 0.316 µM, first compound 3 µM) 71.1% | viability, T/C [9] 98.4% | viability, T/C [10] 84.3% | viability, T/C [11] 103% | viability, T/C [12] 83.7% | viability, T/C (second compound 1 µM, first compound 0.949 µM) 82.2% | viability, T/C (second compound 1 µM, first compound 3 µM) 62.9% | viability, T/C [13] 81.3% | viability, T/C [14] 104% | viability, T/C [15] 91.6% | viability, T/C [16] 79.1% | viability, T/C (second compound 3.16 µM, first compound 0.949 µM) 73% | viability, T/C (second compound 3.16 µM, first compound 3 µM) 70.2% | viability, T/C [17] 80.3% | viability, T/C [18] 82.7% | viability, T/C [19] 98.8% | viability, T/C [20] 73.7% | viability, T/C (second compound 10 µM, first compound 0.949 µM) 79.1% | viability, T/C (second compound 10 µM, first compound 3 µM) 70.5%

Nc1ncn(C2CC(O)C(CO)S2)c(=O)n1 (stereo not given) + NC1CCC(NC2CC2c2ccccc2)CC1
> 300 nM: IC50 (second compound 0.1 µM) | IC50 (second compound 0.316 µM) | IC50 (second compound 1 µM) | IC50 (second compound 3.16 µM) | IC50 (second compound 10 µM)
inactive: viability, T/C (second compound 0.1 µM, first compound 0.000949 µM) 92.8% | viability, T/C (second compound 0.1 µM, first compound 0.003 µM) 85.4% | viability, T/C [1] 93% | viability, T/C [2] 70.1% | viability, T/C [3] 78.1% | viability, T/C [4] 63.3% | viability, T/C (second compound 0.316 µM, first compound 0.000949 µM) 97.4% | viability, T/C (second compound 0.316 µM, first compound 0.003 µM) 77.4% | viability, T/C [5] 80.6% | viability, T/C [6] 79.7% | viability, T/C [7] 85.1% | viability, T/C [8] 59.5% | viability, T/C (second compound 1 µM, first compound 0.000949 µM) 82.2% | viability, T/C (second compound 1 µM, first compound 0.003 µM) 78.1% | viability, T/C [9] 105% | viability, T/C [10] 78.5% | viability, T/C [11] 73.5% | viability, T/C [12] 65.2% | viability, T/C (second compound 3.16 µM, first compound 0.000949 µM) 98.1% | viability, T/C (second compound 3.16 µM, first compound 0.003 µM) 97.9% | viability, T/C [13] 85% | viability, T/C [14] 75% | viability, T/C [15] 81.7% | viability, T/C [16] 48.5% | viability, T/C (second compound 10 µM, first compound 0.000949 µM) 90.3% | viability, T/C (second compound 10 µM, first compound 0.003 µM) 98.6% | viability, T/C [17] 71.2% | viability, T/C [18] 79.5% | viability, T/C [19] 69.5% | viability, T/C [20] 61.9%

O=C(C=Cn1cnc(-c2cc(C(F)(F)F)cc(C(F)(F)F)c2)n1)NNc1cnccn1 + NC1CCC(NC2CC2c2ccccc2)CC1
35.1 nM: IC50 (second compound 3.16 µM)
47.3 nM: IC50 (second compound 0.316 µM)
31.4 nM: IC50 (second compound 1 µM)
29.8 nM: IC50 (second compound 0.1 µM)
28.9 nM: IC50 (second compound 10 µM)
inactive: viability, T/C (second compound 0.1 µM, first compound 0.00316 µM) 72.7% | viability, T/C (second compound 0.1 µM, first compound 0.01 µM) 62.3% | viability, T/C (second compound 0.1 µM, first compound 0.0316 µM) 49.8% | viability, T/C (second compound 0.1 µM, first compound 0.1 µM) 36.2% | viability, T/C (second compound 0.1 µM, first compound 0.316 µM) 30.7% | viability, T/C (second compound 0.1 µM, first compound 1 µM) 23.9% | viability, T/C (second compound 0.316 µM, first compound 0.00316 µM) 75% | viability, T/C (second compound 0.316 µM, first compound 0.01 µM) 69.8% | viability, T/C (second compound 0.316 µM, first compound 0.0316 µM) 57.9% | viability, T/C (second compound 0.316 µM, first compound 0.1 µM) 34.6% | viability, T/C (second compound 0.316 µM, first compound 0.316 µM) 34% | viability, T/C (second compound 0.316 µM, first compound 1 µM) 21% | viability, T/C (second compound 1 µM, first compound 0.00316 µM) 67% | viability, T/C (second compound 1 µM, first compound 0.01 µM) 65.1% | viability, T/C (second compound 1 µM, first compound 0.0316 µM) 49.8% | viability, T/C (second compound 1 µM, first compound 0.1 µM) 31.3% | viability, T/C (second compound 1 µM, first compound 0.316 µM) 30.3% | viability, T/C (second compound 1 µM, first compound 1 µM) 24.3% | viability, T/C (second compound 3.16 µM, first compound 0.00316 µM) 64.9% | viability, T/C (second compound 3.16 µM, first compound 0.01 µM) 61.2% | viability, T/C (second compound 3.16 µM, first compound 0.0316 µM) 53% | viability, T/C (second compound 3.16 µM, first compound 0.1 µM) 31.8% | viability, T/C (second compound 3.16 µM, first compound 0.316 µM) 30.3% | viability, T/C (second compound 3.16 µM, first compound 1 µM) 20.5% | viability, T/C (second compound 10 µM, first compound 0.00316 µM) 72.7% | viability, T/C (second compound 10 µM, first compound 0.01 µM) 70.5% | viability, T/C (second compound 10 µM, first compound 0.0316 µM) 47.2% | viability, T/C (second compound 10 µM, first compound 0.1 µM) 31.5% | viability, T/C (second compound 10 µM, first compound 0.316 µM) 30.8% | viability, T/C (second compound 10 µM, first compound 1 µM) 21.6%
